# Reference: patent publication US20060123501A1, “Method for treating inflammatory disorders” (priority 2004, published 2006)
# Experiments:
# [1] = system: peritoneal- and splenic-derived macrophages; test: Percentage and apoptotic status (Annexin V) of peritoneal and splenic macrophages after i.p. LPS; type: in vivo, mouse
# Experimental: To determine the apoptotic sensitivity of cIAP2^−/− macrophages within an LPS-induced pro-inflammatory environment, the peritoneal macrophage cell numbers before and during an endotoxin-elicited response were assessed by trypan blue exclusion, Diff Quik™ staining kit and flow cytometry (using the macrophage marker PE conjugated α-F4/80 antibody). […] However, total lymphocyte cell count numbers (B and T cells) were comparatively unaffected in both animal types (FIG. 5D). In addition, at 5 hours post LPS injection both the peritoneal and splenic macrophages from cIAP2^−/− mice stained ˜100% positive for Annexin V (Table 5). Therefore, peritoneal and splenic macrophages from cIAP2^−/− mice undergoing LPS-induced endotoxic shock were highly sensitive to apoptotic stimuli compared to control littermates, in vivo. Liver-derived macrophages are key mediators of LPS-induced endotoxic shock (7, 12). Therefore, to further investigate the survival status of macrophages within LPS treated cIAP2^−/− mice we examined cell count levels of liver-derived macrophages within liver sections. Macrophage cell count numbers within both cIAP2^−/− and control mice were similar at 2 hours post-IP LPS treatment (FIG. 6A), 235+/−35 and 271+/−29, respectively (n=5, average of 3 sections (average of 5 fields per section) per mouse, P<0.01). However, at the 6 hour time point (FIG. 6B), there was a precipitous drop of liver-derived macrophages of the cIAP2^−/− mice, 21+/−12 versus that of the littermates, 148+/−19 (n=5, average of 3 sections (average of 5 fields per section) per mouse, P<0.01). Therefore, like peritoneal and splenic macrophages, the liver-derived macrophages from cIAP2^−/− are highly sensitive to LPS in vivo.
# Adult 4-6 week old mice (n=6) were injected i.p. with LPS (35 mg LPS/kg) at time 0 and 5 hours the mice were euthanized and the cells of the peritoneum were collected and stained to determine macrophage, T and B cell percentages. The macrophages were also stained with FITC labeled Annexin V (Immunotech, Marseille, France) to determine apoptotic status.
# T and B cells were isolated from mouse lymphoid tissue (spleen) by first mincing and then pressing the tissue through a 10 μm metal mesh and were then counted by using trypan blue exclusion method. Macrophages were harvested from mice using an inter-peritoneal (i.p.) lavage ([…]: 5% FCS, 50 μM β-mercaptoethanol, […] L-glutamine, penicillin and streptomycin, at 4° C.) and washed once (centrifuged at 800 Xg for 15 min) and resuspended at ˜2×10^7 cells/ml for peritoneal macrophages. Subsequently, peritoneal macrophages were layered on 5 ml of room temperature Lympholyte-M (CedarLane, Canada) and centrifuged at 1500×g for 20 min at room temperature. For splenic macrophages 3 ml of the minced and pressed tissue (˜2×10^7 splenocytes/ml) was layered on 5 ml of room temperature Lympholyte-M (CedarLane, Canada) and centrifuged at 1500×g for 20 min at room temperature. Subsequently, either peritoneal or spleen-derived macrophages were collected from the interface layer, washed twice with complete DMEM and re-suspend in 1 ml complete DMEM. The resulting cells were then counted by using typan blue exclusion and Diff Quik™ Stain Kit (IMEB INC, San Marcos, Calif.). Cells (10^5-10^6) were incubated with the following conjugated monoclonal antibodies: α-CD3ε-flourescein isohiocyanate (FITC), CD4-phycoerythin (PE), CD8α-Cy-Chrome, CD69-PE; B229-FITC, B220-PE, CD11b-Cy-Chrome, (Pharmigen) F4/80-FITC and F4/80PE (Cedarlane Laoratories, Hornby, ON, Canada). Flow cytometric analyses were performed on a Coulter XL cytometer (Coulter, Canada). Concentrations of TNF-α and IL-1β, in primary tissue culture supernatants were determined by ELISA kit (R&D Systems).
# [2] = system: cIAP2−/− and cIAP2+/+ mice; test: Serum cytokine levels (ELISA) after i.p. LPS; type: in vivo, mouse
# Experimental: LPS directly activates macrophages to produce large amounts of IL-1β and TNF-α and to mediate a cascade of events leading to endotoxic shock. We therefore assayed the levels of these pro-inflammatory cytokines in serum from cIAP2^−/− mice treated with LPS (35 mg LPS/kg). In cIAP2^−/− mice, IL-1β serum levels peaked at 4 h and then markedly dropped off (Table 4). This was in contrast to littermate controls where IL-1β levels decreased much later. […] As a further study, we also investigated the serum concentrations of IL-12 (Table 4) after an injection of LPS (35 mg/kg), yet again, we observed an attenuation of a macrophage cytokine, IL-12, by the 6 hour time point. Nevertheless, cIAP2^−/− mice did display early outward signs of sepsis, such as eye exudates and ruffled fur; however, their condition quickly ameliorated, corresponding to the observed waning of the LPS-induced inflammatory cytokines seen within the cIAP2^−/− mice.
# Adult 4-6 week old mice (n=3), cIAP2^−/− and littermate control mice, were injected i.p. with a LD100 dose of LPS (35 mg LPS/kg). At the appropriate times mice were anesthetized with phenobarbital and killed by cervical dislocation. The plasma was then collected from these animals and used to determine serum concentrations of IL-1β, TNF-α and IL-12 via an ELISA kit (R & D Systems).
# [3] = cIAP2+/+ mice, Peritoneal cavity, 0 hrs post-LPS
# [4] = cIAP2+/+ mice, Peritoneal cavity, 5 hrs post-LPS
# [5] = cIAP2+/+ mice, Spleen, 0 hrs post-LPS
# [6] = cIAP2+/+ mice, Spleen, 0 hrs post-LPS (first Spleen line)
# [7] = cIAP2−/− mice, Peritoneal cavity, 0 hrs post-LPS
# [8] = cIAP2−/− mice, Peritoneal cavity, 5 hrs post-LPS
# [9] = cIAP2−/− mice, Spleen, 0 hrs post-LPS
# [10] = cIAP2−/− mice, Spleen, 0 hrs post-LPS (first Spleen line)
# [11] = cIAP2+/+ mice, 2 hours after i.p. LPS 35 mg/kg
# [12] = cIAP2+/+ mice, 6 hours after i.p. LPS 35 mg/kg
# [13] = cIAP2+/+ mice, 10 hours after i.p. LPS 35 mg/kg
# [14] = cIAP2−/− mice, 2 hours after i.p. LPS 35 mg/kg
# [15] = cIAP2−/− mice, 6 hours after i.p. LPS 35 mg/kg
# [16] = cIAP2−/− mice, 10 hours after i.p. LPS 35 mg/kg
substance,measurement,setting,value
lipopolysaccharide [LPS],Percent apoptotic,[1]; [3],10 ± 2%
same,Percent macrophage,[1]; [3],54 ± 29%
same,Percent apoptotic,[1]; [4],66 ± 8%
same,Percent macrophage,[1]; [4],31 ± 17%
same,Percent apoptotic,[1]; [5],46 ± 8%
same,Percent macrophage,[1]; [5],28 ± 5%
same,Percent apoptotic,[1]; [6],5 ± 3%
same,Percent macrophage,[1]; [6],33 ± 15%
same,Percent apoptotic,[1]; [7],15 ± 3%
same,Percent macrophage,[1]; [7],41 ± 24%
same,Percent apoptotic,[1]; [8],100 ± 3%
same,Percent macrophage,[1]; [8],8 ± 11%
same,Percent apoptotic,[1]; [9],98 ± 4%
same,Percent macrophage,[1]; [9],24 ± 8%
same,Percent apoptotic,[1]; [10],2 ± 5%
same,Percent macrophage,[1]; [10],24 ± 11%
same,Macrophages positive for Annexin V (apoptotic),"[1]; cIAP2−/− mice, peritoneal and splenic macrophages, 5 hours post LPS injection",~100%
same,IL-1β Serum Levels,[2]; [11],476 ± 24 pg/mL
same,IL-12 Serum Leves,[2]; [11],210 ± 17 pg/mL
same,TNFα Serum Levels,[2]; [11],1623 ± 348 pg/mL
same,IL-1β Serum Levels,[2]; [12],993 ± 158 pg/mL
same,IL-12 Serum Leves,[2]; [12],260 ± 31 pg/mL
same,TNFα Serum Levels,[2]; [12],502 ± 56 pg/mL
same,IL-1β Serum Levels,[2]; [13],669 ± 48 pg/mL
same,TNFα Serum Levels,[2]; [13],371 ± 64 pg/mL
same,IL-1β Serum Levels,[2]; [14],314 ± 153 pg/mL
same,IL-12 Serum Leves,[2]; [14],152 ± 24 pg/mL
same,TNFα Serum Levels,[2]; [14],1589 ± 413 pg/mL
same,IL-1β Serum Levels,[2]; [15],476 ± 78 pg/mL
same,IL-12 Serum Leves,[2]; [15],11 ± 5 pg/mL
same,TNFα Serum Levels,[2]; [15],202 ± 89 pg/mL
same,IL-1β Serum Levels,[2]; [16],162 ± 21 pg/mL
same,TNFα Serum Levels,[2]; [16],8 ± 7 pg/mL
same,Time of peak IL-1β serum levels,"[2]; cIAP2−/− mice, LPS 35 mg/kg",4 h
same,TNF-α serum levels,"[2]; cIAP2−/− mice, by 10 hours, LPS 35 mg/kg",approximately 10 pg/ml
same,"TNF-α serum levels (stabilized, maintained until death)","[2]; littermate controls, LPS 35 mg/kg",approximately 400 pg/ml
